Assay results taken from patent publication US10927085B2, “1,2-naphthoquinone based derivative and method of preparing the same” (HUEN Co., Ltd., priority 2013, dated 2021).
Like-named read-outs stand apart in the source and are kept apart here.

Key:
NQO1 protein = NQO1 protein (Homo sapiens, UniProt P15559); assay: NQO1 activity measurement (cytochrome C reduction); type: biochemical
Experimental: An enzyme reaction solution included 25 mM Tris/HCl (pH 7.4), 0.14% bovine serum albumin, 200 μM NADH, 77 μM cytochrome C, and 5 ng of NQO1 protein. Enzymatic reaction was initiated by adding NADH and performed at 37° C. In this regard, a reaction rate was measured by observing absorbance, which was increased due to reduction of cytochrome C, at 550 nm for 10 minutes and NQO1 activity was represented as an amount of reduced cytochrome C [nmol cytochrome C reduced/min/μg protein].
Extinction coefficient for cytochrome C:21.1 mmol/L/cm=21.1 μmol/ml/cm

cells = assay: Measurement of lactate change amount within cells; type: cell-based
Experimental: Cells were treated with 400 μl of 6% PCA, and then collected and extracted. Centrifugation (13,000 rpm, 10 min) was performed. A precipitate was dried using a Speed-Vac and then a weight of dried precipitate was measured. A supernatant was neutralized using 400 μl of 1 M KOH and a final volume thereof was adjusted to 1 ml using 0.33 M KH2PO4/K2HPO4, pH 7.5. Centrifugation (13,000 rpm, 10 min) was performed and the amount of lactate in a supernatant was measured (Megazyme, K-LATE).

[1] = 5 μM, 37° C., absorbance at 550 nm for 10 minutes, 200 μM NADH, 77 μM cytochrome C, 5 ng NQO1 protein

Sequence of NQO1 protein (P15559 whole entry, species assumed): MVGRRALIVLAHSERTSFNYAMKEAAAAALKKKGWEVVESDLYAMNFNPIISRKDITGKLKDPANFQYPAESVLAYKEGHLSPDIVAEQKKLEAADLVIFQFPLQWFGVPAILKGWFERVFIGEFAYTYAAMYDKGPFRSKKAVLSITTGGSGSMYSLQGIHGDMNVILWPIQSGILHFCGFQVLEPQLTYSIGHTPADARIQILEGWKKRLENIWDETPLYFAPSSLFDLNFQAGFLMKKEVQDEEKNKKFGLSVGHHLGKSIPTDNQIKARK

Structure (SMILES) | NQO1 activity (5 μM, [nmol cytochrome C reduced/min/μg protein]) (NQO1 protein; [1]) | Lactate change amount within cells (nmol/mg cell) (cells) | NQO1 activity (5 μM, [nmol cytochrome C reduced/min/μg protein]) (NQO1 protein)
COc1cccc2c1C(=O)C(=O)c1nc(C(C)(C)C)oc1-2 [Example 16, 2-tert-butyl-6-methoxynaphtho[2,1-d]oxazole-4,5-dione] | 4.2 nmol cytochrome C reduced/min/μg protein |  | 
CC(C)c1nc2c(o1)-c1cccnc1C(=O)C2=O [Example 20, 2-isopropyloxazolo[5,4-f]quinoline-4,5-dione] | 221.0 nmol cytochrome C reduced/min/μg protein | 9.2 nmol/mg cell | 
CC(C)c1nc2c(o1)-c1c(N)cccc1C(=O)C2=O [Example 13] | 68.6 nmol cytochrome C reduced/min/μg protein |  | 
CC(C)(C)c1nc2c(o1)C(=O)C(=O)c1cccnc1-2 [Example 40] | 527.4 nmol cytochrome C reduced/min/μg protein | 8.1 nmol/mg cell | 
O=C1C(=O)c2nc(CNc3ccc(Cl)cc3)oc2-c2ccccc21 [Example 44] |  | 5.4 nmol/mg cell | 239.0 nmol cytochrome C reduced/min/μg protein
CC(C)(C)c1nc2c(o1)C(=O)C(=O)c1cc(Cl)ccc1-2 [Example 31, 2-tert-butyl-7-chloronaphtho[1,2-d]oxazole-4,5-dione] |  | 10.9 nmol/mg cell | 
CN(Cc1nc2c(o1)-c1ccccc1C(=O)C2=O)c1ccc(F)cc1 [Example 47] | 227.5 nmol cytochrome C reduced/min/μg protein | 7.6 nmol/mg cell | 
O=C1C(=O)c2nc(CNc3ccc(F)cc3)oc2-c2ccccc21 [Example 43] |  | 4.4 nmol/mg cell | 263.0 nmol cytochrome C reduced/min/μg protein
CC(C)C(=O)Nc1ccc2c(c1)C(=O)C(=O)c1oc(C(C)(C)C)nc1-2 [Example 38, N-(2-tert-butyl-4,5-dioxo-4,5-dihydronaphtho[1,2-d]oxazol-7-yl)isobutyramide] | 63.4 nmol cytochrome C reduced/min/μg protein | 4.6 nmol/mg cell | 
CC(C)c1nc2c(o1)-c1cnccc1C(=O)C2=O [Example 37, 2-isopropyloxazolo[4,5-h]isoquinoline-4,5-dione] | 845.7 nmol cytochrome C reduced/min/μg protein | 10.6 nmol/mg cell | 
CC(C)c1nc2c(o1)C(=O)C(=O)c1ncccc1-2 [Example 33] | 458.3 nmol cytochrome C reduced/min/μg protein | 10.2 nmol/mg cell | 
CC(C)c1nc2c(o1)-c1cccc(O)c1C(=O)C2=O [Example 15, 6-hydroxy-2-isopropylnaphtho[2,1-d]oxazole-4,5-dione] | 20.8 nmol cytochrome C reduced/min/μg protein | 4.1 nmol/mg cell | 
COc1cccc2c1C(=O)C(=O)c1nc(C(C)C)oc1-2 [Example 10, 2-isopropyl-6-methoxynaphtho[2,1-d]oxazole-4,5-dione] | 20.7 nmol cytochrome C reduced/min/μg protein | 11.5 nmol/mg cell | 
Cc1nc2c(o1)C(=O)C(=O)c1ncccc1-2 [Example 34] | 923.5 nmol cytochrome C reduced/min/μg protein | 8.9 nmol/mg cell | 
O=C1C(=O)c2nc(CNc3ccccc3)oc2-c2ccccc21 [Example 48] |  | 6.9 nmol/mg cell | 241.4 nmol cytochrome C reduced/min/μg protein
CC(C)(C)c1nc2c(o1)-c1c([N+](=O)[O-])ccc(O)c1C(=O)C2=O [Example 23, 2-tert-butyl-6-hydroxy-9-nitronaphtho[2,1-d]oxazole-4,5-dione] | 60.9 nmol cytochrome C reduced/min/μg protein |  | 
CC(C)(C)c1nc2c(o1)-c1c(O)cccc1C(=O)C2=O [Example 25, 2-tert-butyl-9-hydroxynaphtho[2,1-d]oxazole-4,5-dione] | 23.5 nmol cytochrome C reduced/min/μg protein |  | 
O=C1C(=O)c2[nH]c(=O)oc2-c2ccccc21 [Example 39] | 30.1 nmol cytochrome C reduced/min/μg protein | 7.8 nmol/mg cell | 
O=C1C(=O)c2nc(CN3CCCCC3)oc2-c2ccccc21 [Example 6, 2-(piperidin-1-ylmethyl)naphtho[2,1-d]oxazole-4,5-dione] | 171.8 nmol cytochrome C reduced/min/μg protein | 6.7 nmol/mg cell | 
CC(C)(C)c1nc2c(o1)-c1c(N)cccc1C(=O)C2=O [Example 19] | 0.4 nmol cytochrome C reduced/min/μg protein |  | 
COc1ccc([N+](=O)[O-])c2c1C(=O)C(=O)c1nc(C(C)(C)C)oc1-2 [Example 22, 2-tert-butyl-6-methoxy-9-nitronaphtho[2,1-d]oxazole-4,5-dione] | 102.5 nmol cytochrome C reduced/min/μg protein |  | 
COc1c([N+](=O)[O-])ccc2c1C(=O)C(=O)c1nc(C(C)(C)C)oc1-2 [Example 21, 2-tert-butyl-6-methoxy-7-nitronaphtho[2,1-d]oxazole-4,5-dione] | 40.3 nmol cytochrome C reduced/min/μg protein |  | 
CC(C)(C)c1nc2c(o1)-c1cccc(O)c1C(=O)C2=O [Example 17, 2-tert-butyl-6-hydroxynaphtho[2,1-d]oxazole-4,5-dione] | 7.4 nmol cytochrome C reduced/min/μg protein |  | 
CC(C)(C)c1nc2c(o1)-c1c(cccc1[N+](=O)[O-])C(=O)C2=O [Example 18] | 382.9 nmol cytochrome C reduced/min/μg protein | 13.5 nmol/mg cell | 
COc1cccc2c1-c1oc(CN(C)C)nc1C(=O)C2=O [Example 11, 2-((dimethylamino)methyl)-9-methoxynaphtho[2,1-d]oxazole-4,5-dione] |  | 6.6 nmol/mg cell | 
CC(=O)OCc1nc2c(o1)-c1ccccc1C(=O)C2=O [Example 50] | 244.3 nmol cytochrome C reduced/min/μg protein | 8.8 nmol/mg cell | 
Cc1cc(=O)[nH]c2c1-c1oc(C(C)C)nc1C(=O)C2=O [Example 14, 2-isopropyl-9-methyloxazolo[5,4-f]quinoline-4,5,7(6H)-trione] |  |  | 104.2 nmol cytochrome C reduced/min/μg protein
COc1ccc(NCc2nc3c(o2)-c2ccccc2C(=O)C3=O)cc1 [Example 46] |  | 7.4 nmol/mg cell | 208.0 nmol cytochrome C reduced/min/μg protein
Cc1cc(F)ccc1NCc1nc2c(o1)-c1ccccc1C(=O)C2=O [Example 49] | 229.6 nmol cytochrome C reduced/min/μg protein | 6.0 nmol/mg cell | 
O=C1C(=O)c2nc(-c3ccccc3)oc2-c2ccccc21 [Example 3, 2-phenylnaphtho[2,1-d]oxazole-4,5-dione] | 255.5 nmol cytochrome C reduced/min/μg protein | 8.1 nmol/mg cell | 
